Assay results as given in patent publication US12421257B2, “Compositions and methods for inhibiting group II intron RNA” (YALE UNIVERSITY, priority 2018, dated 2025).
≈ marks a conversion by molar mass, not a printed value. Entries after “also recorded” stand apart in the source; their conditions may differ.

How the values were obtained:
HEK-293T cells = assay: Cytotoxicity in HEK-293T cells (Cell Titer Glo); type: cell-based, human; details: Homo sapiens, cytotoxicity, 24 hours with compound, read-out: IC50 HEK-293
Method: HEK-293T cells were cultured in Dulbecco's Modified Eagle's Medium (DMEM) (Gibco) supplemented with 10% Fetal Bovine Serum (FBS, Gibco) and 100 U/ml of Penicillin-Streptomycin (Gibco) at 37° C. and 5% CO2. For the cytotoxicity experiments, cells were aliquoted into black 96-well plates with a clear bottom (Corning 3603) at a concentration of 10,000 cells per well. The cells were grown at 37° C., 5% CO2 for 5-6 hours, then the medium was replaced with the same medium without FBS and cells were grown at 37° C., 5% CO2 for 24 hours. Freshly prepared stock solutions of test compounds (12.8 mg/ml in DMSO) were serially diluted 1:2 with DMSO into the first 11 successive wells of a 12-well row on a 96-well plate as described above. Well 12 was used as a growth control (no compound). […] After incubation, cell viability was determined using the luminescent Cell Titer Glo cell viability assay (Promega), in which 100 μl of the assay reagent was added to each well of the assay plate. After gentle shaking for 7-10 minutes, the plates were analyzed on a Synergy H1 plate reader (BioTek). Luminescence was plotted against the compound concentration and IC50 values were determined by fitting the data to a 4-parameter logistic function c+(d−c)/(1+(x/a)^b), where a is the IC50, b is the slope parameter, c is the minimum response and d is the maximum response. Experiments were replicated to ensure reproducibility.

C. parapsilosis = assay: MIC determination against C. parapsilosis; type: cell-based, Candida parapsilosis; details: Lodderomyces parapsilosis; RPMI-1640, 35° C. or 37° C., turbidity after 24 and 48 hours
Method: Minimal inhibitory concentrations (MICs) for C. parapsilosis were determined in a final volume of 100 μl. Fresh stock solutions of control antifungal drugs (Amphotericin B and Itraconazole) and of test compounds were prepared at 3.2 mg/ml and at 12.8 mg/ml respectively in DMSO. After placing the stock in the first well, solutions of test compounds and antifungal controls were serially diluted 1:2 with DMSO into the first […] successive wells of a 12-well row on a 96-well plate (as described above). After dilution, 2.5 μl from each of these 10 wells were transferred onto a separate 96-well plate and diluted with 122.5 μl of RPMI-1640 medium (Sigma). Wells 11 and 12 contained 2.5 μl DMSO and 122.5 μl of RPMI-1640 as a positive growth control (no compound) and sterility control (no inoculum added). A 50 μl volume was taken from each of the RPMI dilutions (wells 1-12) and transferred to the wells of a third 96-well plate (assay plate), where they were mixed with an equal volume (50 μl) of freshly prepared inoculum of C. parapsilosis in RPMI-1640 medium, set at a density to provide the 0.5×10^3 to 2.5×10^3 colony forming units per 1 mL (except for the sterility control). Sterility control was mixed with 50 μl of sterile medium.
The final concentration range of the assay was 0.25-128 μg/ml for test compounds and 0.0625-32 μg/ml for Amphotericin B and Itraconazole. The final concentration of DMSO was 1%. The assay plate was incubated at 35° C. or 37° C. and visually analyzed for turbidity after 24 and 48 hours of incubation. The lowest compound concentration at which no growth was apparent is reported as the MIC. All experiments were performed in triplicate.

ai5γ group II intron = assay: Radioanalytic self-splicing assay of SE RNA (Ki); type: biochemical, Saccharomyces cerevisiae; details: 8 mM MgCl2, 100 mM KCl, pH 7.5, 30° C.
Method: Internally labeled SE RNA (2 nM) was incubated with various concentrations of inhibitor compound under near-physiological conditions (in 50 mM MOPS, pH 7.5, 8 mM MgCl2, 100 mM KCl) at 30° C. Aliquots at different time points were quenched and analyzed on 5% denaturing polyacrylamide gel as previously described (Daniels et al., 1996, Journal of molecular biology, 256:31-49). Data were fit to a single-exponential equation to determine the first order rate constants (kobs). The latter were then plotted against the concentration of the inhibitor and fit to the equation for non-competitive inhibition to determine Ki values: kobs=kmax/(1+[I]/Ki), where kobs and kmax are the first order rate constants measured in the presence and in the absence of the inhibitor, respectively, [I] is the concentration of the inhibitor and Ki is the inhibition constant. Experiments were performed four times for API-014, three times for APY-090, Intronistat A, and Intronistat B and twice for the remaining compounds to ensure reproducibility. Data represent average±s.e.m.

[1] = tested on: ai5γ group II intron (D135 ribozyme); assay: Fluorescent D135 ribozyme cleavage assay (IC50); type: biochemical, Saccharomyces cerevisiae; details: for IC50: D135 ribozyme cleavage of substrate 17/2 DL, 100 mM MgCl2, 500 mM KCl, 37° C., 10 minutes; for In vitro inhibitory activity, SAR statement (in words): relative to parent scaffold
Method: The D135 ribozyme (Su et al., 2005, Nucleic Acids Res, 33:6674-6687), fluorescently labeled oligo substrate 17/2 DL (FIG. 1A-FIG. 1D) (both at 20 nM final concentrations in 50 mM MOPS, pH 7.0, 100 mM MgCl2, 0.5M KCl), and the test compounds (final concentration of 10 μM in 50 mM MOPS, pH 7.0, 100 mM MgCl2, 0.5M KCl) were aliquoted onto black non-binding 384-well plates (Corning 3757) using the multidrop combi (ThermoFisherScientific) and pintool (V & P Scientific). The reaction mixtures were incubated at 37° C. for 45 minutes, then the reaction was quenched with 100 mM EDTA and fluorescence intensity was analyzed on a Tecan Infinite multimode plate reader (λex 520 nm, λem 560 nm, 5 nm bandwidth). Data were normalized to untreated wells and wells lacking the D135 ribozyme, and percent of inhibition was calculated using ActivityBase (IDBS). The Z′-factor was calculated as described (Zhang et al., 1999, J Biomol Screen, 4:67-73): Z′=1−3×(σp+σn)/|μp−μn|, • where μp and σn are mean value and standard deviation for the positive control (substrate only), and where μn and σn are mean value and standard deviation for the negative control (no compound). The average Z′-factor from the screen was 0.83±0.03. IC50 Measurement for the Small Molecule Inhibition of the D135 Ribozyme Cleavage Reaction.
Black 96-well plates (Corning 3695) were filled with 50 μl of solution containing 20 nM D135 ribozyme, 20 nM double-labeled substrate 17/2 DL and small molecule inhibitor in 50 mM MOPS, pH 7.0, 100 mM MgCl2 and 500 mM KCl. Small molecule inhibitors were tested at 19 different concentrations ranging from 5 nM to 1 mM. Plates were incubated at 37° C. for 10 minutes, then reaction mixtures were quenched with 100 mM EDTA and analyzed on the Synergy H1 plate reader (BioTek). Each experiment was performed in triplicate. Data were fit to a 4-parameter logistic function c+(d−c)/(1+(x/a)^b), where a is the IC50, b is the slope parameter, c is the minimum response and d is the maximum response. Data are reported as average±s.e.m

Row | SMILES | IC50 (HEK-293T cells) | MIC (C. parapsilosis) | Ki (ai5γ group II intron) | IC50 [1] | In vitro inhibitory activity, SAR statement (in words) [1]
1 | O=C1/C(=C/c2ccc(O)c(O)c2)Oc2cc(O)cc(O)c21 [APY-007, (Z)-2-(3,4-Dihydroxybenzylidene)-4,6-dihydroxybenzofuran-3(2H)-one] | > 128 µg/mL | > 128 µg/mL | 156 ± 34 µM | > 100 µM | nearly complete loss of activity; also recorded: inactivated both in vitro and in vivo
2 | O=C1/C(=C/c2cc(F)c(O)c(F)c2)Oc2cc(O)cc(O)c21 [APY-010] | 0.55 µg/mL | > 128 µg/mL | 140 µM |  | 
3 | O=C1/C(=C/c2cc(O)c(O)c(O)c2)Oc2cc(O)ccc21 [APY-013] | 19 µg/mL | 32 µg/mL (≈ 112 µM) | 16.5 µM | 16.7 µM | 
4 | O=C(N/N=C/c1ccccc1O)c1cc(O)c(O)c(O)c1 [APY-021] |  | 32 µg/mL (≈ 111 µM) | 9.4 µM | 14 µM | 
5 | O=C(N/N=C/c1ccc(O)cc1O)c1cc(O)c(O)c(O)c1 [APY-022] | 17.6 µg/mL | 32 µg/mL (≈ 105 µM) | 6.5 µM | 5.5 µM | 
6 | COc1cc(/C=N/NC(=O)c2cc(O)c(O)c(O)c2)cc(O)c1O [APY-038] | 15.9 µg/mL | 8 µg/mL (≈ 23.9 µM) | 1.1 µM | 1.3 µM | 
7 | COc1cc(CCC(=O)c2cc(O)c(O)c(O)c2)cc(OC)c1OC [APY-069] | > 128 µg/mL | 32 µg/mL (≈ 91.9 µM) | 29 µM | 27 µM | 
8 | O=C(c1cc(O)c(O)c(O)c1)c1cc2cc(F)ccc2o1 [APY-070] | > 128 µg/mL | 32 µg/mL (≈ 111 µM) | 1 µM | 4.2 µM | 
9 | O=C(c1cc(O)c(O)c(O)c1)c1cc2c(ccc3ccccc32)o1 [APY-071] | 6 µg/mL | 16 µg/mL (≈ 50 µM) | 0.15 µM | 0.3 µM | 
10 | O=C(CCc1ccc2ccccc2c1)c1cc(O)c(O)c(O)c1 [APY-076] | 7 µg/mL | 16 µg/mL (≈ 51.9 µM) | 5.4 µM | 8 µM | 
11 | COc1ccc(CNC(=O)c2cc(O)c(O)c(O)c2)cc1OC [APY-077, N-[(3,4-Dimethoxyphenyl)methyl]-3,4,5-trihydroxybenzamide] | > 32 µg/mL | 64 µg/mL (≈ 200 µM) | 44 ± 11 µM | 30 ± 4 µM | substantial loss of activity
12 | COc1ccc(CCNC(=O)c2cc(O)c(O)c(O)c2)cc1OC [APY-078] | > 128 µg/mL | 64 µg/mL (≈ 192 µM) | 16 µM | 27 µM | 
13 | C[C@H](NC(=O)c1cc(O)c(O)c(O)c1)c1cccc2ccccc12 [APY-079] | 4.6 µg/mL | 32 µg/mL (≈ 99 µM) | 32 µM | 20 µM | 
14 | O=C(c1cc(O)c(O)c(O)c1)c1cc2cc(Cl)cc(Cl)c2o1 [APY-083, 5-[(5,7-Dichloro-1-benzofuran-2-yl)carbonyl]benzene-1,2,3-triol] | 0.5 ± 0.1 µg/mL | 8 µg/mL (≈ 23.6 µM) | 0.9 ± 0.1 µM | 3.3 ± 0.3 µM | without significant loss of function
15 | CCN(CC)C(=O)c1ccc(-c2ccc3oc(C(=O)c4cc(O)c(O)c(O)c4)cc3c2)cc1 [APY-091, N,N-Diethyl-4-{2-[(3,4,5-trihydroxyphenyl)carbonyl]-1-benzofuran-5-yl}benzamide] | 5.35 ± 0.05 µg/mL | 8 µg/mL (≈ 18 µM) | 4.5 ± 0.9 µM | 2.4 ± 0.4 µM | 
16 | O=C(c1cc(O)c(O)c(O)c1)c1cc2cc(-c3ccc(C(F)(F)F)nc3)ccc2o1 [APY-097, 5-({5-[6-(Trifluoromethyl)pyridin-3-yl]-1-benzofuran-2-yl}carbonyl)benzene-1,2,3-triol] | 5.4 ± 0.6 µg/mL | 8 µg/mL (≈ 19.3 µM) | 3.9 ± 0.5 µM | 2.8 ± 0.2 µM | 
17 | O=C(c1cc2cc(-c3ccc(CO)cc3)ccc2o1)c1ccc(B(O)O)cc1F [APY-098, [3-Fluoro-4-({5-[4-(hydroxymethyl)phenyl]-1-benzofuran-2-yl}carbonyl)phenyl]boronic acid] | 11 ± 3 µg/mL | > 128 µg/mL | > 1000 µM | > 1000 µM | nearly complete loss of activity
18 | COc1cccc(/C=N/NC(=O)c2cc(O)c(O)c(O)c2)c1O [Compound 2] | 34 µg/mL | 32 µg/mL (≈ 101 µM) | 8 µM | 7.3 µM | 
19 | CN(C)CCNC(=O)c1ccc2oc(C(=O)c3cc(O)c(O)c(O)c3)cc2c1 [NED-2018, N-(2-(dimethylamino)ethyl)-2-(3,4,5-trihydroxybenzoyl)-benzofuran-5-carboxamide] | > 128 µg/mL | 16 µg/mL (≈ 41.6 µM) | 0.62 ± 0.03 µM | 9 ± 4 µM | 
